From patent publication US9650664B2, “Use of photocleavable compounds” (FEMTONICS KFT, priority 2011, dated 2017)

How the values were obtained:
[1] = spontaneous hydrolysis in ACSF; format: physicochemical
Procedure: […] The solution was sampled at the beginning of the storage and 48 hours later and 4-methoxy-5,7-dinitro-2,3-dihydro-1H-indole was identified from the hydrolysis products by using LCMS method. The compound was identified by the peak of its molecule weight at 240. The sample taken after 48 hours was measured with HPLC equipment. Without correction 46.7% of DNI-Glu*TFA hydrolysed.

[2] = system: Hippocampus neurons in CA1 stratum radiatum; experiment: spontaneous activity of the cell (EPSP frequency), voltage-clamp test; format: cell-based, Wistar rats
Procedure: (§1) Acute hippocampus slices were prepared from 16-20 day old Wistar rats using isoflurane anaesthesia followed by swift decapitation. The process was in accordance with the Hungarian Act of Animal Care and Experimentation (1998. XXVIII, section 243). Coronal (300 μm) brain slices were cut with a vibratome and stored at room temperature in artificial cerebrospinal fluid (ACSF). The composition of the ACSF solution is described above.
(§2) Hippocampus neurons in CA1 stratum radiatum near the border of the stratum lacunosum-moleculare were visualized using 900 nm infrared oblique illumination. Current-clamp recordings were made at 32° C. (MultiClamp 700B, Digidata 1440; Molecular Devices, Sunnyvale, Calif., USA) with glass electrodes (6-9 MΩ) filled with (in mM): 125 K-gluconate, 20 KCl, 10 HEPES, 10 Di-Tris-salt phosphocreatine, 0.3 Na-GTP, 4 Mg-ATP, 10 NaCl, 0.06 Oregon Green BAPTA-1 (OGB-1) and biocytin. Cells with a resting membrane potential more negative than −50 mV were accepted. The recorded cells were classified as nonpyramidal cells according to their electrophysiological properties.
A.) Using the test setup of the two-photon excitation process according to Example 16 spontaneous potential changes of the observed cell was measured.
At the beginning of the experiment the control level of potential changes (EPSP) was measured in the absence of DNI-Glu. The measured fluctuation is shown in FIG. 1/A. Following the test DNI-Glu (2.5 mM) was added to the measuring cell. The measured fluctuation is shown in FIG. 1/B. Then 0.1-0.2 unit/ml L-glutamic acid dehydrogenase enzyme and 200 μM NADP (β-Nicotinamide adenine dinucleotide phosphate) were added.
B.) The experiment described in point A.) was repeated 8 times using other cells in each case. The column diagram can be seen on the left side. The average of the control level is shown in column a.). The average of the change due to the caged compound is shown in column b.), while the average level after the addition of the enzyme in column c.).

[3] = system: Hippocampus neurons in CA1 stratum radiatum; experiment: two-photon uncaging on acute hippocampus slices with neutralizing agents (EPSP, Ca2+ transient); format: cell-based, Wistar rats; details: 2.5 mM
Procedure: as §1, §2
Two-photon imaging started 15-20 minutes after attaining the whole-cell configuration on a two-photon laser-scanning system (Femto2D, Femtonics Ltd., Budapest) using femtosecond lasers (830-850 nm), Mai Tai HP, SpectraPhysics, Mountain View, Calif.). […]

[4] = according to WO2008/094922; cited from earlier work
hippocampus neurons = details: according to WO2008/094922; cited from earlier work
[5] = weight increase on storage (hygroscopicity); format: physicochemical; details: 25° C. 50% relative humidity, after 72 hours storage
Procedure: We measured the weight increase of MNI-Glubase and its salts with hydrochloric and trifluoroacetic acid at 25° C. 50% relative humidity.

[6] = system: hippocampal pyramide cell; experiment: two-photon stimulation of a hippocampal pyramide cell (Example 20); format: cell-based, Wistar rats; details: for Calcium tranziens by two-photon stimulation / somatically recorded EPSP by two-photon stimulation: 2.5 mM, 740 nm, with L-glutamic acid dehydrogenase and NADP; for toxicity: pyramid cell response to 500 ms -100, 0 and 125 pA current injection, waveform after stimulation
Procedure: as §1, §2
a.) After achieving the whole-cell mode and filling the interneurons with 60 μM OGB-1, the bath solution was exchanged to ACSF containing MNI-Glu-TFA [2.5 mM, Tocris]. Photolysis of MNI-Glu-TFA was performed with 710-830 nm ultrafast, pulsed laser light (Mai Tai HP Deep See, SpectraPhysics, Mountain View, Calif.). The intensity of the uncaging laser beam was controlled with an electro-optical modulator (Model 350-80 LA, Conoptics). Dispersion compensation was set to have maximal response at the depth of uncaging (50-80 μm from surface). The uncaging laser beam was coupled into the imaging optical pathway with a dichroic mirror (custom laser combiner, z750bcm; Chroma Technology Corp, Rockingham, USA). Chromatic aberration was compensated at the focal plane. Radial and axial beam (imaging and photochemical stimulating) alignment errors were held below 100 nm and 300 nm, respectively. Imaging was interleaved with two-photon glutamate uncaging periods, when galvanometers jumped to the maximum 15-25 selected locations (<60 μs jump time) and returned back to the 3D or 2D trajectory thereafter. The position of uncaging sites was finely adjusted according to background images taken. Photolysis of caged glutamate was performed in “clustered” (0.8±0.1 μm distance between inputs) patterns along the dendrite. The single spot uncaging time and laser intensity was set to reproduce uEPSPs and mEPSPs induced by the local application of high osmolar external solution at similar distances from the soma (amplitude of unitary gluEPSP: 0.56±0.09 mV, mEPSPs: 0.58±0.1, uEPSP: 0.55±0.12; exposure time 0.2-0.5 ms/input). Small drifts of the sample (on the order of 0.1-0.2 μm) during the mapping were compensated manually according to regularly taken background images. b.) After the test the perfusion rate was set to 10 ml/min in order to increase the exchange rate of ACSF containing 2.5 mM DNI-Glu*TFA used in the subsequent test. The test was repeated with the same setting of the equipment on the same dendrite section.
The experiment was carried out according to Example 16 with the difference that the cell was filled with calcium sensitive dye (Fluo4) and anatomical dye (ALEXA 594). The experiments were carried out in accordance of the Example 16 with the following differences: after patch clamp the perfusion solution exchange to ACSF containing 2.5 mM iDMPO-DNI-Glutamic acid*2TFA and, or ACSF containing 2.5 mM iDMBO-DNI-Glutamic acid*2TFA, 0.1-0.2 units/ml of L-glutamic acid dehydrogenase and β-Nicotinamide adenine dinucleotide phosphate for the second measurement. The β-Nicotinamide adenine dinucleotide phosphate was kept in a concentration of 50-100 μM during the experiments. All chemical agents (cage compound, dehidrogenase, NADP apply into the bath). During the experiments the evaporation loss of dH2O was continuously refilled. […]

Molecule: COc1c([N+](=O)[O-])cc([N+](=O)[O-])c2c1CCN2C(=O)CCC(N)C(=O)O.O=C(O)C(F)(F)F (stereo not drawn) [DNI-Glu*TFA, trifluoroacetic acid salt of 2-amino-5-(4′-methoxy-5′,7′-dinitro-2′,3′-dihydro-indol-1′-yl)-5-oxo-pentanoic acid]
- hydrolysed ([1]; 0.06 mg/ml in ACSF, stored at 32° C., 48 hours, HPLC, without correction): 46.7%
- speed of the formation of the glutamic acid ([1]; in 12 ml of ACSF): 1 µmol/min

Molecule: COc1c([N+](=O)[O-])cc([N+](=O)[O-])c2c1CCN2C(=O)CCC(N)C(=O)O (stereo not drawn) [DNI-Glu, 2-amino-5-(4′-methoxy-5′,7′-dinitro-2′,3′-dihydro-indol-1-yl)-5-oxo-pentanoic acid]
- frequency of EPSP / spontaneous responses after addition of glutamate dehydrogenase enzyme ([2]; DNI-Glu 2.5 mM, then L-glutamic acid dehydrogenase and NADP): restored to the control level
- EPSP Frequency MEAN ([2]; DNI-Glu 2.5 mM, enzyme = 0.1-0.2 unit/ml L-glutamic acid dehydrogenase and 200 μM NADP, repeated 8 times, other cells): 3.87 Hz
- frequency of EPSP on addition to the perfusion solution ([2]; DNI-Glu added, no enzyme): increased
- excitatory postsynaptic potential (EPSP) resulted by irradiation, compared with MNI-Glu ([3]; FIG. 2/A): significantly higher
- Ca2+ transient signal as a response of the irradiation, compared with MNI-Glu ([3]; FIG. 2/B): significantly higher
- dissolution in physiological solutions [4]: so bad
- electrical signals in two-photon irradiation experiments (hippocampus neurons): no electrical signals

Molecule: COc1ccc([N+](=O)[O-])c2c1CCN2C(=O)CC[C@H](N)C(=O)O.Cl [MNI-Glu HCl salt]
- weight increase [5]: 13.6%

Molecule: COc1ccc([N+](=O)[O-])c2c1CCN2C(=O)CCC(N)C(=O)O.O=C(O)C(F)(F)F (stereo not drawn) [MNI-Glu trifluoroacetic acid salt]
- weight increase [5]: 4%

Molecule: COc1ccc([N+](=O)[O-])c2c1CCN2C(=O)CCC(N)C(=O)O (stereo not drawn) [MNI-Glubase, 2-amino-5-(4-methoxy-7-nitro-2,3-dihydro-indol-1-yl)-5-oxo-pentanoic acid]
- weight increase [5]: 20%

Molecule: di-trifluoroacetic acid salt of 2-amino-1-(4′-dimethylamino-isobutoxy-5′,7′-dinitro-2′,3′-dihydro-indol-1′-yl)-5-oxo-pentanoic [iDMBO-DNI-Glu TFA]
- Calcium tranziens by two-photon stimulation [6]: the same as Panel (D)
- somatically recorded EPSP by two-photon stimulation [6]: the same as Panel (D)
- toxicity [6]: not detected

Molecule: di-trifluoroacetic acid salt of 2-amino-1-(4′-dimethylamino-isopropoxy-5′,7′-dinitro-2′,3′-dihydro-indol-1′-yl)-5-oxo-pentanoic [iDMPO-DNI-Glu TFA]
- Calcium tranziens by two-photon stimulation [6]: could evoke
- somatically recorded EPSP by two-photon stimulation [6]: could evoke
- toxicity [6]: not detected
